# Data from patent publication US9045423B2, “Prophylactic and/or therapeutic agent for anemia comprising tetrahydroquinoline compound as active ingredient” (KOWA COMPANY, LTD., priority 2009, dated 2015).
# Columns and labels:
# [1] = system: K562 cells, a human proerythroblast cell line; experiment: Hemoglobin production in K562 cells (fluorescence of the porphyrin ring); type: cell-based; conditions: Homo sapiens, K562, 144 h; 6 μM test compound, 3 + 3 days incubation; non-stimulated state without compound = 100; read-out: amount of hemoglobin, % of control (6 μM)
# Procedure: K562 cells (obtained from ATCC), which is a human proerythroblast cell line, were inoculated at a concentration of 1×10^5 cells/1 mL in each well of a 24-well plate, using complete medium (RPMI-1640 medium containing 10% bovine fetal serum), and 1 μL of a test compound at a 1000-fold concentration was added to each well. Subsequently, the cells were incubated for 3 days in a CO2 incubator (37° C., 5% CO2). The medium was exchanged, and the cells were further incubated for 3 days. The cells were collected and counted. Subsequently, the amount of hemoglobin produced in the cells was determined by adjusting the number of cells to 3×10^5 cells, and measuring the fluorescence of the porphyrin ring. That is, the cells collected by centrifugation were suspended in 500 μL of 2 M oxalic acid, and were heated to boil for 30 minutes. The cells were cooled, and then the fluorescence intensity was measured by using a fluorescence microplate reader (Spectra MAX GeminiEM; Molecular Devices Corp.) ([…]). The amount of hemoglobin in a non-stimulated state where no compound was added was designated as 100-, and the amount of hemoglobin (% of control) produced as induced by each of the compounds was determined.
# [2] = system: HepG2 cells derived from human liver cancer; experiment: EPO production in HepG2 cells (EPO ELISA of culture supernatant); type: cell-based; conditions: Homo sapiens; for activity at 3 µM: HepG2, 3 μM test compound, 48 hrs, 4% oxygen, non-stimulated state without compound = 100%, read-out: amount of EPO production, % of control (3 μM); for activity at 10 µM: HepG2, 48 h, final concentration 10 μM, non-stimulated state = 100%, read-out: enhancement of EPO production
# Procedure: HepG2 cells derived from human liver cancer were inoculated in an amount of 5×10^4 cells per well on a 48-well plate, using minimum essential medium (MEM, Sigma-Aldrich Company) containing 10% bovine fetal serum. On the next day, the medium was exchanged with Dulbecco's modified eagle medium (DMEM (Sigma-Aldrich Company)) containing 10% bovine fetal serum without Phenol Red. Then, a test compound dissolved in DMSO was added thereto to obtain a final concentration of 3 μM or 10 μM, and the amount of medium was adjusted to 400 μL per well. The cells were incubated for 48 hrs in a CO2 incubator in which the oxygen concentration was adjusted to 4%, and then the culture supernatant was collected. The EPO concentration in the culture supernatant was immediately measured using an EPO ELISA kit (Roche Diagnostics GmbH). The method was carried out according to the operation manual.
# The amount of EPO production in a non-stimulated state where no compounds were added, was designated as 100%, and the amount of EPO production (% of control) induced by each of the compounds was determined.
Structure (SMILES),activity at 6 µM [1] [%],activity at 3 µM [2] [%],activity at 10 µM [2] [%]
"CC(=O)N1c2ccc(C(=O)O)cc2C(Nc2ccc(-c3cnns3)cc2)CC1C (centres unmarked) [Compound 172, 1-Acetyl-2-methyl-4-{[4-(1,2,3-thiadiazol-5-yl)-phenyl]amino}-1,2,3,4-tetrahydroquinoline-6-carboxylic acid]",168,152,–
"CC(=O)N1c2ccc(C(=O)NC(C)C)cc2C(Nc2ccc(N3CCOCC3)cc2)CC1C (centres unmarked) [Compound 176, 1-Acetyl-N-isopropyl-2-methyl-4-[(4-morpholinophenyl)-amino]-1,2,3,4-tetrahydroquinoline-6-carboxamide]",355,325,–
"CC(=O)N1c2ccc(C(=O)NCCOCCOCCOCCC(=O)OC(C)(C)C)cc2C(Nc2ccc(N3CCOCC3)cc2)CC1C (centres unmarked) [Compound 149, Tert-butyl 12-{1-Acetyl-2-methyl-4-[(4-morpholinophenyl)-amino]-1,2,3,4-tetrahydroquinoline-6-carboxamido}-4,7,10-trioxadodecanoate]",367,190,–
"CC(=O)N1c2ccc(C(N)=O)cc2C(Nc2ccc(C3CCCCC3)cc2)CC1C (centres unmarked) [Compound 147, 1-Acetyl-4-[(4-cyclohexylphenyl)-amino]-2-methyl-1,2,3,4-tetrahydroquinoline-6-carboxamide]",160,–,130
"COC(=O)CCCCCNC(=O)c1ccc2c(c1)C(Nc1ccc(Cl)cc1)CC(C)N2C(C)=O (centres unmarked) [Compound 158, Methyl 6-{1-acetyl-4-[(4-chloro-phenyl)amino]-2-methyl-1,2,3,4-tetrahydroquin-oline-6-carboxamido}-hexanoate]",411,–,248
"CC(=O)N1c2ccc(C(=O)NCCO)cc2C(Nc2ccc(Cl)cc2)CC1C (centres unmarked) [Compound 126, 1-Acetyl-4-[(4-chlorophenyl)-amino]-N-(2-hydroxyethyl)-2-methyl-1,2,3,4-tetrahydroquinoline-6-carboxamide]",124,161,–
"CC(=O)N1c2ccc(C(=O)NC(=O)c3ccccc3)cc2C(Nc2ccc(N3CCOCC3)cc2)CC1C (centres unmarked) [Compound 166, 1-Acetyl-N-benzoyl-2-methyl-4-[(4-morpholinophenyl)-amino]-1,2,3,4-tetrahydroquinoline-6-carboxamide]",282,185,–
"CC(=O)N1c2ccc(N3CCOCC3)cc2C(Oc2ccc(Cl)cc2)CC1C (centres unmarked) [Compound 152, 1-Acetyl-4-(4-chloro-phenoxy)-2-methyl-6-morpholino-1,2,3,4-tetrahydroquinoline]",337,186,–
"CNC(=O)c1ccc2c(c1)C(Oc1ccc(N3CCOCC3)cc1)CC(C)N2C(C)=O (centres unmarked) [Compound 140, 1-Acetyl-N,2-dimethyl-4-(4-morpholinophenoxy)-1,2,3,4-tetrahydroquinoline-6-carboxamide]",231,124,–
"COC(=O)CCCCCNC(=O)c1ccc2c(c1)C(Nc1ccc(N3CCOCC3)cc1)CC(C)N2C(C)=O (centres unmarked) [Compound 157, Methyl 6-{1-Acetyl-2-methyl-4-[(4-morpholinophenyl)-amino]-1,2,3,4-tetrahydro-quinoline-6-carboxamido}-hexanoate]",396,–,237
